Experiments:
[1] = system: Acetylcholinwirkung auf Blase; experiment: Inhibition of the acetylcholine effect on bladder; assay type: in vivo, Meerschweinchen
Text: (§1) Dabei wurde die Herzfrequenz durch extrakorporale Ableitung des EKG, der Ausatemwiderstand nach Konzett-Rößler und die Kontraktion […] an den untersuchten Organen wurden Dosis-Wirkungskurven aufgenommen und daraus -log EDso-Werte bestimmt. Ergebnisse siehe Tabelle V.

[2] = system: Acetylcholinwirkung auf Bronchien; experiment: Inhibition of the acetylcholine effect on bronchi; assay type: in vivo, Meerschweinchen
Text: as §1

[3] = system: Acetylcholinwirkung auf Herzfrequenz; experiment: Inhibition of the acetylcholine effect on heart rate; assay type: in vivo, Meerschweinchen
Text: as §1

[4] = target: T1, muskarinischen Rezeptoren (Ventrikel) (Rattus norvegicus, UniProt P10980); experiment: Receptor binding test in vivo (3H-NMS), heart ventricle; parameters: species or system Ratten; conditions: iv
T1 construct: wurden die Tiere getötet, das Herz, die Bronchien und die Tränendrüsen entnommen; from tissue; host or cells: rat heart (atrium, ventricle), in vivo labelling with 3H-NMS
T1 sequence (P10980 1-466): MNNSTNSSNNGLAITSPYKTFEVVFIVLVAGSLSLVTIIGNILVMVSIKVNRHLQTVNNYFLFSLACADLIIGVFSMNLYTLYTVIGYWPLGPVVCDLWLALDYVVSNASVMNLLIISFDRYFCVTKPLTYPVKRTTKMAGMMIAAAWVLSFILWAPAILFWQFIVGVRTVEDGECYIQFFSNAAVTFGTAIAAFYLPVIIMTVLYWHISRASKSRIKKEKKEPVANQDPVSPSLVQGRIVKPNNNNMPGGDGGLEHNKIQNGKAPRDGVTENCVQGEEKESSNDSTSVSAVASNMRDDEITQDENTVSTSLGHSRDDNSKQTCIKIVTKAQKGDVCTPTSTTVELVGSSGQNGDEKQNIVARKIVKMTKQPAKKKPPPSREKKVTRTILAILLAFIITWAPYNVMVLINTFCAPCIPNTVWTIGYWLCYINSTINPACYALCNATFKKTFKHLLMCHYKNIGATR
Method: (§2) Für diese Experimente wurden weibliche Ratten mit einem Körpergewicht von ca. 200 g verwendet. Vor Versuchsbeginn wurden die Tiere mit einer Dosis von 1,25 g/kg Urethan narkotisiert. Die Tiere erhielten jeweils die vorgesehene Dosis der Prüfsubstanz durch i.v. Injektion. Nach Ablauf von 15 Minuten wurde auf gleiche Weise 113 ng/kg ^3H-N-Methylscopolamin (^3H-NMS) gegeben. Nach weiteren 15 Minuten wurden die Tiere getötet, das Herz, die Bronchien und die Tränendrüsen entnommen. Diese Organe wurden in Soluene R aufgelöst und die Radioaktivität bestimmt. Diese Messwerte wurden als Totalbindung angenommen. […] Aus diesen Versuchen wurden für die einzelnen Organe IDso-Werte ermittelt. Die IDso-Werte sind Dosen der Prüfsubstanzen, die 50% der spezifischen Bindung von ^3H-NMS an die muskarinischen Rezeptoren der jeweiligen Organe hemmten.

[5] = target: T2, muskarinischen Rezeptoren (Atrium) (Rattus norvegicus, UniProt P10980); experiment: Receptor binding test in vivo (3H-NMS), heart atrium; parameters: species or system Ratten
T2 construct: wurden die Tiere getötet, das Herz, die Bronchien und die Tränendrüsen entnommen; from tissue; host or cells: rat heart (atrium, ventricle), in vivo labelling with 3H-NMS
T2 sequence (P10980 1-466): T1 sequence (P10980 1-466)
Text: as §2, with “Nach Ablauf von 15 Minuten wurde auf gleiche Weise 113 ng/kg ^3H-N-Methylscopolamin (^3H-NMS) gegeben.” left out

M1 = M1 activity in the rat: inhibition of blood pressure rise caused by McN-A-343; assay type: in vivo, Ratte
Method: (§3) Die angewandte Methode wurde von Hammer und Giachetti (Life Sciences 31, 2991-2998 (1982)) beschrieben. 5 Minuten nach intravenöser Injektion steigender Dosen der Substanz wurden entweder der rechte Vagus elektrisch stimuliert (Frequenz: 25 Hz; Pulsbreite: 2ms; Reizdauer: 30s; Voltzahl: supramaximal) oder 0,3 mg/kg McN-A-343 in männliche THOM-Ratten intravenös injiziert. Die durch Vagusstimulation hervorgerufene Bradykardie und der durch McN-A-343 verursachte Blutdruckanstieg wurden bestimmt. Die Dosis der Substanzen, die entweder die vagale Bradykardie (M2) oder den Blutdruckanstieg (Mi) um 50% verminderte, wurde graphisch ermittelt. Ergebnisse siehe Tabelle II.

Speichelsekretion = experiment: Inhibition of pilocarpine-induced salivation in the rat; assay type: in vivo, Ratte; conditions: in vivo
Method: Nach Lavy und Mulder (Arch. int. Pharmacodyn. 178, 437-445, (1969)) erhielten mit 1,2 g/kg Urethan narkotisierte männliche THOM-Ratten steigende Dosen der Substanz i.v.. Die Speichelsekretion wurde durch s.c. Gabe von 2 mg/kg Pilocarpin ausgelöst. Der Speichel wurde mit Fließpapier aufgesaugt, die von ihm eingenommene Fläche alle 5 Minuten planimetrisch bestimmt. Die Dosis der Substanz, die das Speichelvolumen um 50% verminderte, wurde graphisch ermittelt. Ergebnisse siehe Tabelle 11.

[6] = target: T3, muskarinischen Rezeptoren (Tränendrüsen) (Rattus norvegicus, UniProt P08483); conditions: in vivo, iv
M2 = M2 activity in the rat: inhibition of bradycardia induced by vagus stimulation; assay type: in vivo, Ratte; conditions: i.v.; dose reducing vagal bradycardia by 50%; 5 min after injection
Method: as §3

[7] = target: T4, muscarinischen Rezeptoren (Herz) (Rattus norvegicus, UniProt P10980); experiment: biochemical; assay type: binding, Ratte; conditions: whole heart homogenate 1:400, 0,3 nmolar 3H-NMS, 30°C, 45 min; read-out: Rezeptor-Bindungs-Tests -log IC50 Herz (converted)
T4 construct: Das Gesamtherz wurde mit einer Schere zerkleinert; Alle Organe wurden abschließend in einem Potter homogenisiert; from tissue; host or cells: rat whole heart homogenate
T4 sequence (P10980 1-466): T1 sequence (P10980 1-466)
Text: Als Organspender dienten männliche Sprague-Dawley-Ratten mit 180-220 g Körpergewicht. Nach Entnahme von Herz und Submandibularis wurden alle weiteren Schritte in eiskaltem Hepes-HCI-Puffer (pH 7,4; 100 m molar NaCI, 10 m molar MgCI2) vorgenommen. Das Gesamtherz wurde mit einer Schere zerkleinert. Alle Organe wurden abschließend in einem Potter homogenisiert.
Für den Bindungstest wurden die Organhomogenate in folgender Weise verdünnt: • Gesamtherz 1:400 • Submandibularis 1:400
Die Inkubation der Organhomogenate erfolgte bei einer bestimmten Konzentration des Radioliganden und einer Konzentrationsreihe der nichtradioaktiven Testsubstanzen im Eppendorf-Zentrifugenröhrchen bei 30°C. Die Inkubationsdauer betrug 45 Minuten. Als Radioligand wurde 0,3 nmolar ^3H-N-Methylscopolamin (^3H-NMS) verwendet. Die Inkubation wurde durch Zugabe von eiskaltem Puffer mit nachfolgender Vakuumfiltration beendet. Die Filter wurden mit kaltem Puffer gespült und ihre Radioaktivität bestimmt. Sie repräsentiert die Summe von spezifischer und unspezifischer Bindung von ^3H-NMS. Der Anteil der unspezifischen Bindung wurde definiert als jene Radioaktivität die in Anwesenheit von 1 u. molar Quinciidinylbenzilat gebunden wurde. Es wurden immer Vierfachbestimmungen vorgenommen. Die ICso-Werte der nicht markierten Testsubstanzen wurden graphisch bestimmt. Sie repräsentieren jene Konzentration der Testsubstanz, bei welcher die spezifische Bindung von ^3H-NMS an die muscarinischen Rezeptoren in den verschiedenen Organen um 50 % gehemmt wurde.

[8] = target: T3, muskarinischen Rezeptoren (Tränendrüsen); experiment: in vivo; conditions: iv, 0.5 h, read-out: ID50 Tränendrüsen

T3 sequence (P08483 whole entry): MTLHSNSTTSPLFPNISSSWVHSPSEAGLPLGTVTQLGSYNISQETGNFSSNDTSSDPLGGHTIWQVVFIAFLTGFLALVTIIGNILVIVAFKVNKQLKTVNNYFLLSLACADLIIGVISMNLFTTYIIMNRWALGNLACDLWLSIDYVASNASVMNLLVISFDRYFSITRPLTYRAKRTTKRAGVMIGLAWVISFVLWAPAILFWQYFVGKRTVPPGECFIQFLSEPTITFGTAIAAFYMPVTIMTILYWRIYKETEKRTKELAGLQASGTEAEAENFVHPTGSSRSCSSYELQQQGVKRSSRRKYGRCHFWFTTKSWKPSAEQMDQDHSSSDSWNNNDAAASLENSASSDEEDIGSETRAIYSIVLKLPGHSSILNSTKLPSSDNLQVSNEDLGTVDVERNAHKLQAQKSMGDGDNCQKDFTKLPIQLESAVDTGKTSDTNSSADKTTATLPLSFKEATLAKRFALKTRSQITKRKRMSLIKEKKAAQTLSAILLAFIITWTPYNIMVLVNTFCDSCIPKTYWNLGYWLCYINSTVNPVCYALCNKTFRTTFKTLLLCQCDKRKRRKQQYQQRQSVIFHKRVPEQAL

Compound | -log ED50 Blase ([1]; in vivo) | -log ED50 Bronchien ([2]; in vivo) | -log ED50 Herz ([3]; in vivo) | ID50 Herz Ventrikel ([4]; in vivo) | Verhältnis der ID50 Tränendrüse zu ID50 des Atrium ([5]; in vivo) | ID50 Herz Atrium ([5]; in vivo, iv) | M1-Aktivität (Ratte) ED50 (M1; in vivo) [mg/kg] | Verhältnis Speichelsekretionshemmung zu M2-Aktivität (Speichelsekretion) | ID50 Tränendrüsen [6] | M2-Aktivität (Ratte) ED50 (M2) [mg/kg] | ED50 ([1]; Cavia porcellus, 5 min, anaesthetised guinea pig, acetylcholine 5 min after test substance, bladder contraction, read-out: -log ED50 Blase (converted)) [µmol/kg] | ED50 ([2]; Cavia porcellus, 5 min, anaesthetised guinea pig, acetylcholine 5 min after test substance, expiratory resistance, read-out: -log ED50 Bronchien (converted)) [µmol/kg] | ED50 ([3]; Cavia porcellus, 5 min, anaesthetised guinea pig, acetylcholine 5 min after test substance, heart rate) [µmol/kg] | IC50 [7] [nM] | ED50 ([4]; rat, 0.5 h, read-out: ID50 Herz Ventrikel) [mg/kg] | ED50 [8] [mg/kg] | ED50 ([5]; rat, iv, 0.5 h, read-out: ID50 Herz Atrium) [mg/kg] | M1-Aktivität (Ratte) ED50 (M1; i.v., dose reducing McN-A-343 (0,3 mg/kg) blood pressure rise by 50%, 5 min) [mg/kg]
CN1C2CCC1CC(OC(=O)C(CO)c1ccccc1)C2 (racemic) [Z, Atropin, reference compound] | 7,03 Molkg^-1 | 7,96 Molkg^-1 | 7,70 Molkg^-1 | 0,03 mg/kg | 1,5 | 0,08 mg/kg | 0.016 | 2,2 | 0,2 mg/kg | – | – | – | – | – | – | – | – | –
CCN(CC)CC1CCCCN1CC(=O)N1c2ccccc2C(=O)Nc2cccnc21 (stereo not drawn) [X, 11-[[2-[(Diethylamino)methyl]-1-piperidinyl]acetyl]-5,11-dihydro-6H-pyrido[2,3-b][1,4]-benzodiazepin-6-on, reference compound] | – | – | – | – | – | – | – | – | – | 0.16 | 18.6 | 2.63 | 1.45 | 151 | 0.6 | > 30 | 1 | 0.988
